The results in this text go back to US20250236617A1, “BICYCLIC TETRAHYDROTHIAZEPINE DERIVATIVES” (Hoffmann-La Roche Inc., priority 2022, published 2025).

Structures are written as SMILES.

In assay [1] the test system is primary human T-cells. Put plainly: T-cell proliferation assay (CellTiter-Glo). It is filed as cell-based. The note with it: CD3 condition; for EC50: Homo sapiens, T-cell, 120 h, proliferation after 5 days, CellTiter-Glo, read-out: Tcell Proliferation CD3 EC50; for Emax proliferation (% activation): 5 days, 20 μM reference compound A1 = 100%. Here is the method:
For coating of plates, PBS++ only or PBS++ with CD3 antibody (concentration depending on donor and determined by CD3 titrations) is added 100 μl/well to Poly-D Lysine coated 96-well plates. Plates are sealed and incubated at room temperature for 3 hours on a table-top rocking platform. After incubation, plates are washed once with PBS−− and filled with 40 μl/well culture medium only. Compounds are then added (see next section) to medium only plates. After 3 hours of culturing the T-cells, cells are filtered through a cell strainer (Miltenyi Biotech, #130-041-407), counted again and concentration is adjusted to 1.25 Mio/ml.
Cells are then seeded 80 μl/well to the 40 μl/well including dispensed compounds according to plate layout. By adding cells, compounds are further diluted 1:3, and resulting in 100 k cells/120 μl/well. After 48 hours 40 μl of supernatant is collected carefully from the top while not disturbing the cells. Cells are assessed for proliferation 5 days later by measuring […] using CellTiterGlo (Promega).
Compounds were added in a 5 or 6 pt dose response with the Tecan D300e Digital Dispenser, all conditions 3 times more concentrated than the end-concentration, since cells are added afterwards (80 μl cells to 40 μl prepared medium with treatment). […] The positive control was the reference compound A1 that was added in a dose response as well, additionally to 3 wells of only 20 μM representing the positive stimulator control. All wells were normalized with DMSO to a final concentration of 0.6% (0.2% end-concentration).
After 5 days, for detection of ATP which is directly proportional to the number of cells present per well, the CellTiter-Glo® 2.0 Reagent is used. After visual control for toxicity or precipitations of the tested compounds, the plates are equilibrated to room temperature for 45 minutes. CellTiter-Glo® 2.0 Reagent is equilibrated to room temperature as well. After equilibration, an equal amount of CellTiter-Glo reagent is added to the cells (80 μl/well) with an electronic multichannel pipette. Plates are placed on a rocking platform for 15 minutes at room temperature. After incubation, the bottom of the plates is sealed with backing tape. Luminescence is measured with PHERAstar FSX (interval time 0.5 sec, gain 3000, focal height 15 mm) and exported as CSV file for analysis in Genedata screener.
Calculations and Data Reporting CD3 and PBS plates were analysed separately in Genedata Screener using Roche Normalization PCT_POS_CTRL with DMSO set as Neutral Control and 20 μM of the reference compound A1 set as Stimulator Control/100%.
For CD3 conditions EC50 and Emax of the fitted sigmoidal curve were reported. If no curve could be fitted, the EC50 was reported as blank field and the Emax was based on individual data points. […] Compounds which activate unstimulated cells (see IL2 measurements) or compounds which negatively affected viability were flagged.
In general terms: Cellular ATP, detected with luciferase, serves as a proxy for viable cell number.

For assay [2], the system named is primary human T-cells. Description: IL2 secretion measurements in CD3-stimulated T-cells. It is filed as cell-based. Particulars: CD3 condition; for Emax IL2 (% activation): 24 hours, 20 μM reference compound A1 = 100%; for EC50: Homo sapiens, T-cell, IL2 secretion after 24 hours, read-out: Tcell IL2 CD3 EC50. The procedure:
As readouts for T-cell activation, 1L2 secretion after 24 hours and proliferation after 5 days was measured. Increases in 1L2 secretion and proliferation upon compound treatment were assessed as the % of the maximum of reference compound A1. WO 2016/139181 discloses reference compound A1 as example 70. As a counter screen and to make sure that no unwanted TCR-independent activation was triggered, PBS conditions were run for all compounds.
Expanded primary human T-cells were thawed and cultured in RPMI 1640 (Gibco, #61870-010)+5% human serum (HS, Sigma, #H3667)+1 mM Sodium Pyruvate (Gibco, #11360-039)+50 μM 2-mercaptoethanol (Gibco, #31350-010) and 1× Pen-Strep (Life Technologies, #15140122) medium at density of 2 Mio/ml for 3 hours in 5% CO2, 37° C. and 95% humidity. For coating of plates, […] or PBS++ with CD3 antibody (concentration depending on donor and determined by CD3 titrations) was added 100 μl/well to Poly-D Lysine coated 96-well plates. Plates were sealed and incubated at room temperature for 3 hours on a table-top rocking platform. After incubation, plates were washed once with PBS−− and filled with 40 μl/well culture medium only. Compounds were then added (see next section) to medium only plates. After 3 hours of culturing the T-cells, cells were filtered through a cell strainer (Miltenyi Biotech, #130-041-407), counted again and concentration was adjusted to 1.25 Mio/ml.
Cells were then seeded 80 μl/well to the 40 μl/well including dispensed compounds according to plate layout. By adding cells, compounds were further diluted 1:3, and resulting in 100 k cells/120 μl/well. After 24 hours 40 μl of supernatant was collected carefully from the top while not disturbing the cells and transferred into a round bottom 96 well plate. Collected and frozen supernatant was used for detection of IL2 using the IL-2 Human ProQuantum Immunoassay Kit (Invitrogen) or using the Human IL-2 ELISA Kit (Thermo Fisher).
Compounds were added in a 5 or 6 pt dose response with the Tecan D300e Digital Dispenser, all conditions 3 times more concentrated than the end-concentration, since cells are added afterwards (80 μl cells to 40 μl prepared medium with treatment). The DR was starting at 20 μM or 10 μM final top concentration and a dilution factor of 3.333. The positive control was the reference compound A1 that was added in a dose response as well, additionally to 3 wells of only 20 μM representing the positive stimulator control. All wells were normalized with DMSO to a final concentration of 0.6% (0.2% end-concentration).
The immunoassay is done following the manufacturer's manual (Invitrogen, #A35603). Additional information: For the immunoassay, MicroAmp™ EnduraPlate™ Optical 384-Well plates are used. Frozen supernatant is thawed and centrifuged for 5 minutes at 1000×g, both steps at 4° C. After centrifugation, required sample amount is taken from the top, and in a separate LightCycler V-bottom plate (working plate) diluted with assay dilution buffer, dilution factor depending on the PBS or CD3 condition but at least 1:3. IL-2 standard and blanks are prepared in the same V-bottom plate, standard with a range of […] (extended version). After preparation, 5 μl of sample dilutions or standard/blanks are transferred to the optical 384-well plate (assay plate) and the 10 μl reaction protocol is being followed. For measurement, the QuantStudio 12K Flex system is used. Raw data is extracted and IL-2 concentrations are calculated with the Thermo Fisher online app (apps.thermofisher.com/apps/proquantum).
ELISA is done following the manufacturer's manual (Thermo Fisher Scientific, #88-7025-88). Additional information: For the ELISA Nunc MaxiSorp 96 well plates are used. Frozen supernatant is thawed and centrifuged for 5 minutes at 1000×g, both steps at 4° C. […]

In the case of `CC(C)(C)c1ccnc(-c2cc3c(cc2F)S(=O)(=O)C[C@H](N)C(=O)N3Cc2ccc(Cl)cc2)c1` [Example 1, (3R)-3-amino-7-(4-tert-butyl-2-pyridyl)-5-[(4-chlorophenyl)methyl]-8-fluoro-1,1-dioxo-2,3-dihydro-1λ6,5-benzothiazepin-4-one], the EC50 in the assay on primary human T-cells [1] amounted to 1720 nM. Further, in the assay on primary human T-cells [2], the “Emax IL2 (% activation)” value was 56 % activation and the EC50 worked out at 7380 nM.

As for `CC(C)(C)c1cc(-c2cc3c(cc2F)S(=O)(=O)C[C@H](N)C(=O)N3Cc2ccc(Cl)cc2)ccn1` [Example 3, (3R)-3-amino-7-(2-tert-butyl-4-pyridyl)-5-[(4-chlorophenyl)methyl]-8-fluoro-1,1-dioxo-2,3-dihydro-1λ6,5-benzothiazepin-4-one], the figures for the EC50 in the assay with primary human T-cells [1] and with primary human T-cells [2] were 1510 nM and 829 nM, respectively. Moreover, in the assay on primary human T-cells [2], the “Emax IL2 (% activation)” value was determined as 56 % activation.

Turning to `CC(C)(C)c1cc(-c2cc3c(cc2F)S(=O)(=O)C[C@H](N)C(=O)N3Cc2ccc(Cl)cc2)ncn1` [Example 4, (3R)-3-amino-7-(6-tert-butylpyrimidin-4-yl)-5-[(4-chlorophenyl)methyl]-8-fluoro-1,1-dioxo-2,3-dihydro-1λ6,5-benzothiazepin-4-one], the EC50 in the assay with primary human T-cells [1] was determined as 408 nM. In the assay on primary human T-cells [2], the “Emax IL2 (% activation)” value was 81 % activation and the EC50 amounted to 2240 nM.

As to `COc1cc(-c2cc3c(cc2F)S(=O)(=O)C[C@H](N)C(=O)N3Cc2ccc(Cl)cc2)cnn1` [Example 6, (3R)-3-amino-5-[(4-chlorophenyl)methyl]-8-fluoro-7-(6-methoxypyridazin-4-yl)-1,1-dioxo-2,3-dihydro-1λ6,5-benzothiazepin-4-one], the EC50 with primary human T-cells [1] is 1410 nM; with primary human T-cells [2], above 10000 nM. For the same compound, the “Emax IL2 (% activation)” value in the assay on primary human T-cells [2] was determined as 14 % activation.

On to `CC(C)Oc1cc(-c2cc3c(cc2F)S(=O)(=O)C[C@H](N)C(=O)N3Cc2ccc(Cl)cc2)cnn1` [Example 7, (3R)-3-amino-5-[(4-chlorophenyl)methyl]-8-fluoro-7-(6-isopropoxypyridazin-4-yl)-1,1-dioxo-2,3-dihydro-1λ6,5-benzothiazepin-4-one], for which, in the assay on primary human T-cells [1], the EC50 turned out to be 172 nM. Also, in the assay on primary human T-cells [2], the “Emax IL2 (% activation)” value worked out at 49 % activation and the EC50 was 3200 nM.

`N[C@H]1CS(=O)(=O)c2cc(F)c(-c3cc(C(F)(F)F)ccn3)cc2N(Cc2ccc(Cl)cc2)C1=O` [Example 8, (3R)-3-amino-5-[(4-chlorophenyl)methyl]-8-fluoro-1,1-dioxo-7-[4-(trifluoromethyl)-2-pyridyl]-2,3-dihydro-1λ6,5-benzothiazepin-4-one]: in the assay with primary human T-cells [1], the “Emax proliferation (% activation)” value is listed as 100 % activation and the EC50 turned out to be 1310 nM. Besides, in the assay with primary human T-cells [2], the “Emax IL2 (% activation)” value is reported as 37 % activation and the EC50 is above 20000 nM.

Consider `N[C@H]1CS(=O)(=O)c2cc(F)c(-c3cccc(C(F)(F)F)n3)cc2N(Cc2ccc(Cl)cc2)C1=O` [Example 9, (3R)-3-amino-5-[(4-chlorophenyl)methyl]-8-fluoro-1,1-dioxo-7-[6-(trifluoromethyl)-2-pyridyl]-2,3-dihydro-1λ6,5-benzothiazepin-4-one], for which, in the assay on primary human T-cells [1], the “Emax proliferation (% activation)” value stood at 76 % activation and the EC50 stood at 6690 nM.

`N[C@H]1CS(=O)(=O)c2cc(F)c(-c3nccc(C(F)(F)F)n3)cc2N(Cc2ccc(Cl)cc2)C1=O` [Example 10, (3R)-3-amino-5-[(4-chlorophenyl)methyl]-8-fluoro-1,1-dioxo-7-[4-(trifluoromethyl)pyrimidin-2-yl]-2,3-dihydro-1λ6,5-benzothiazepin-4-one]: in the assay with primary human T-cells [1], the EC50 was 3570 nM. Further, in the assay on primary human T-cells [2], the “Emax IL2 (% activation)” value came out at 44 % activation and the EC50 came out at 1820 nM.

Consider `CC(C)(C)c1cnc(-c2cc3c(cc2F)S(=O)(=O)C[C@H](N)C(=O)N3Cc2ccc(Cl)cc2)nn1` [Example 12, (3R)-3-amino-7-(6-tert-butyl-1,2,4-triazin-3-yl)-5-[(4-chlorophenyl)methyl]-8-fluoro-1,1-dioxo-2,3-dihydro-1λ6,5-benzothiazepin-4-one], for which, in the assay on primary human T-cells [1], the EC50 was found to be 1670 nM. Also, in the assay on primary human T-cells [2], the “Emax IL2 (% activation)” value is reported as 77 % activation and the EC50 worked out at 2780 nM.

On to `Cc1nnc(-c2cc3c(cc2F)S(=O)(=O)C[C@H](N)C(=O)N3Cc2ccc(Cl)cc2)nc1-c1ccccc1` [Example 13, (3R)-3-amino-5-[(4-chlorophenyl)methyl]-8-fluoro-7-(6-methyl-5-phenyl-1,2,4-triazin-3-yl)-1,1-dioxo-2,3-dihydro-1λ6,5-benzothiazepin-4-one], for which, in the assay with primary human T-cells [1], the EC50 was determined as 3640 nM. In addition, in the assay with primary human T-cells [2], the “Emax IL2 (% activation)” value was 48 % activation and the EC50 is above 10000 nM.

Consider `CC(C)Oc1ccc(CN2C(=O)[C@@H](N)CS(=O)(=O)c3cc(F)c(-c4nncc(C(C)(C)C)n4)cc32)cc1` [Example 14, (3R)-3-amino-7-(5-tert-butyl-1,2,4-triazin-3-yl)-8-fluoro-5-[(4-isopropoxyphenyl)methyl]-1,1-dioxo-2,3-dihydro-1λ6,5-benzothiazepin-4-one], for which, in the assay on primary human T-cells [1], the EC50 was 254 nM. Also, in the assay with primary human T-cells [2], the “Emax IL2 (% activation)” value worked out at 73 % activation and the EC50 amounted to 1630 nM.

Consider `N[C@H]1CS(=O)(=O)c2cc(F)c(-c3cnnc(C4(C(F)(F)F)CC4)c3)cc2N(Cc2ccc(-c3noc(C(F)(F)F)n3)cc2)C1=O` [Example 37, (3R)-3-amino-8-fluoro-1,1-dioxo-7-[6-[1-(trifluoromethyl)cyclopropyl]pyridazin-4-yl]-5-[[4-[5-(trifluoromethyl)-1,2,4-oxadiazol-3-yl]phenyl]methyl]-2,3-dihydro-1λ6,5-benzothiazepin-4-one], for which, in the assay on primary human T-cells [1], the “Emax proliferation (% activation)” value came out at 147 % activation and the EC50 is 729 nM.
